Laboratory results as given in patent US8426345B2, “Method of drug design” (Alchemia Limited, priority 2005, dated 2013).

Target: T1, Human SST5 somatostatin receptor (Homo sapiens, UniProt P35346)
T1 construct: expressed in transfected cells; host or cells: HEK-293 EBNA cells (membranes)
Assay: Filter plate radio-ligand binding assay for SST5 receptor ([125I]SST-14 displacement)
Settings: for % SST5 radio-ligand binding displaced at conc 10: conc 10 μM; for % SST5 radio-ligand binding displaced at conc 0.25: conc 0.25 μM; for % SST5 radio-ligand binding displaced at conc 1.0: conc 1.0 μM; for % SST5 radio-ligand binding displaced at conc 0.5: conc 0.5 μM

[1] = compound conc 50 μM, 2P library
[2] = compound conc 250 μM, 2P library
[3] = compound conc 500 μM, 2P library

T1 sequence (P35346 whole entry): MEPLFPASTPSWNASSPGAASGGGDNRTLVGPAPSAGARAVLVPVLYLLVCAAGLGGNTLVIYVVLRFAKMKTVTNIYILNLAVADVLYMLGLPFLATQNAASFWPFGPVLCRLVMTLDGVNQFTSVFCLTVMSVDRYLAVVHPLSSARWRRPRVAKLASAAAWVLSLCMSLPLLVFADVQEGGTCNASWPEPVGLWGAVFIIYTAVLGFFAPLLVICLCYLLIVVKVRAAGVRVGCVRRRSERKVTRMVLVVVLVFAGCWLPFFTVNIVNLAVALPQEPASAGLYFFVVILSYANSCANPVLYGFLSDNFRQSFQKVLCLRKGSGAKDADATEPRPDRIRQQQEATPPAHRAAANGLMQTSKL

| SMILES | % SST5 radio-ligand binding displaced at conc 50 [1] | % SST5 radio-ligand binding displaced at conc 250 [2] | % SST5 radio-ligand binding displaced at conc 500 [3] | % SST5 radio-ligand binding displaced at conc 0.25 (3P library) | % SST5 radio-ligand binding displaced at conc 1.0 (3P library) | further results |
| --- | --- | --- | --- | --- | --- | --- |
| COC[C@H]1O[C@@H](SC)[C@H](NC(=O)CCCN)[C@@H](OCc2ccc(Cl)cc2)[C@@H]1O [Compound 24] | − (% SST5 radio-ligand binding displaced at cone (μM) −<40%) | − (% SST5 radio-ligand binding displaced at cone (μM) −<40%) | − (% SST5 radio-ligand binding displaced at cone (μM) −<40%) | – | – | – |
| COC[C@H]1O[C@H](OCc2ccc3ccccc3c2)[C@H](NC(=O)CN)[C@H](OC)[C@@H]1O [Compound 34] | − (% SST5 radio-ligand binding displaced at cone (μM) −<40%) | − (% SST5 radio-ligand binding displaced at cone (μM) −<40%) | − (% SST5 radio-ligand binding displaced at cone (μM) −<40%) | – | – | – |
| COC[C@H]1O[C@@H](OCc2ccc(Cl)cc2)[C@H](NC(=O)CCN)[C@H](OC)[C@@H]1O [Compound 39] | − (% SST5 radio-ligand binding displaced at cone (μM) −<40%) | − (% SST5 radio-ligand binding displaced at cone (μM) −<40%) | ++ (% SST5 radio-ligand binding displaced at conc (μM) >60%) | – | – | – |
| COCC1OC(OCc2ccc3ccccc3c2)C(NC(=O)CCN)C(OCc2ccccc2)C1O (mixture of isomers) [Compound 65] | – | – | – | – | – | % SST5 radio-ligand binding displaced at conc 10 (3P library): ++ (% SST5 radio-ligand binding displaced at conc (μM) >60%) |
| COC[C@H]1O[C@H](OCc2ccc3ccccc3c2)[C@H](NC(=O)CCN)[C@@H](OC)[C@@H]1O [Compound 60] | – | – | – | – | – | % SST5 radio-ligand binding displaced at conc 50 (conc 50 μM, 3P library): − (% SST5 radio-ligand binding displaced at cone (μM) −<40%); % SST5 radio-ligand binding displaced at conc 250 (conc 250 μM, 3P library): + (% SST5 radio-ligand binding displaced at cone (μM) 60>+>40%); % SST5 radio-ligand binding displaced at conc 500 (conc 500 μM, 3P library): ++ (% SST5 radio-ligand binding displaced at conc (μM) >60%) |
| COC[C@H]1O[C@H](OCc2ccc3ccccc3c2)[C@H](NC(=O)CCN)[C@H](OC)[C@@H]1O [Compound 63] | – | – | – | – | – | % SST5 radio-ligand binding displaced at conc 50 (conc 50 μM, 3P library): + (% SST5 radio-ligand binding displaced at cone (μM) 60>+>40%); % SST5 radio-ligand binding displaced at conc 250 (conc 250 μM, 3P library): ++ (% SST5 radio-ligand binding displaced at conc (μM) >60%); % SST5 radio-ligand binding displaced at conc 500 (conc 500 μM, 3P library): ++ (% SST5 radio-ligand binding displaced at conc (μM) >60%) |
| COC[C@H]1O[C@H](OCc2ccc3ccccc3c2)[C@H](NC(=O)C2CCCNC2)[C@@H](OCc2ccc3ccccc3c2)[C@@H]1O (stereo partly shown) [Compound 103] | – | – | – | + (% SST5 radio-ligand binding displaced at cone (μM) 60>+>40%) | ++ (% SST5 radio-ligand binding displaced at conc (μM) >60%) | – |
| COC[C@H]1O[C@H](OCc2ccc3ccccc3c2)[C@H](NC(=O)CCN)[C@@H](OCc2cc(Cl)ccc2Cl)[C@@H]1O [Compound 108] | – | – | – | + (% SST5 radio-ligand binding displaced at cone (μM) 60>+>40%) | ++ (% SST5 radio-ligand binding displaced at conc (μM) >60%) | – |
| CO[C@H]1[C@H](O)[C@@H](COCc2ccc3ccccc3c2)O[C@@H](SC)[C@@H]1NC(=O)CCN [Compound 16] | − (% SST5 radio-ligand binding displaced at cone (μM) −<40%) | − (% SST5 radio-ligand binding displaced at cone (μM) −<40%) | + (% SST5 radio-ligand binding displaced at cone (μM) 60>+>40%) | – | – | – |
| COC[C@H]1O[C@H](OCc2ccc3ccccc3c2)[C@H](NC(=O)CCCN)[C@@H](OC)[C@@H]1O [Compound 6] | − (% SST5 radio-ligand binding displaced at cone (μM) −<40%) | + (% SST5 radio-ligand binding displaced at cone (μM) 60>+>40%) | ++ (% SST5 radio-ligand binding displaced at conc (μM) >60%) | – | – | – |
| COC[C@H]1O[C@H](OCc2ccc3ccccc3c2)[C@H](NC(=O)CCN)[C@@H](OCc2cccc3ccccc23)[C@@H]1O [Compound 114] | – | – | – | ++ (% SST5 radio-ligand binding displaced at conc (μM) >60%) | ++ (% SST5 radio-ligand binding displaced at conc (μM) >60%) | – |
| CO[C@H]1[C@H](O)[C@@H](COCc2ccc(Cl)cc2)O[C@@H](SC)[C@@H]1NC(=O)CN [Compound 7] | − (% SST5 radio-ligand binding displaced at cone (μM) −<40%) | − (% SST5 radio-ligand binding displaced at cone (μM) −<40%) | − (% SST5 radio-ligand binding displaced at cone (μM) −<40%) | – | – | – |
| COC[C@H]1O[C@H](OCc2ccc(Cl)cc2)[C@H](NC(=O)CN)[C@@H](OC)[C@@H]1O [Compound 11] | − (% SST5 radio-ligand binding displaced at cone (μM) −<40%) | − (% SST5 radio-ligand binding displaced at cone (μM) −<40%) | − (% SST5 radio-ligand binding displaced at cone (μM) −<40%) | – | – | – |
| COC[C@H]1O[C@@H](SC)[C@H](NC(=O)CN)[C@@H](OCc2ccc3ccccc3c2)[C@@H]1O [Compound 10] | − (% SST5 radio-ligand binding displaced at cone (μM) −<40%) | − (% SST5 radio-ligand binding displaced at cone (μM) −<40%) | − (% SST5 radio-ligand binding displaced at cone (μM) −<40%) | – | – | – |
| COC1C(O)C(COCc2ccc3ccccc3c2)OC(OCc2ccc3ccccc3c2)C1NC(=O)CCN (mixture of isomers) [Compound 97] | – | – | – | − (% SST5 radio-ligand binding displaced at cone (μM) −<40%) | + (% SST5 radio-ligand binding displaced at cone (μM) 60>+>40%) | – |
| COCC1OC(OCc2ccc3ccccc3c2)C(NC(=O)C2CCCCC2N)C(OCc2ccc3ccccc3c2)C1O (stereo not shown) [Compound 104] | – | – | – | − (% SST5 radio-ligand binding displaced at cone (μM) −<40%) | − (% SST5 radio-ligand binding displaced at cone (μM) −<40%) | – |
| COC[C@H]1O[C@@H](SC)[C@H](NC(=O)CCN)[C@H](OCc2ccc3ccccc3c2)[C@@H]1O [Compound 57] | − (% SST5 radio-ligand binding displaced at cone (μM) −<40%) | − (% SST5 radio-ligand binding displaced at cone (μM) −<40%) | − (% SST5 radio-ligand binding displaced at cone (μM) −<40%) | – | – | – |
| COC[C@H]1O[C@H](OCc2ccc3ccccc3c2)[C@H](NC(=O)CCCN(C)C)[C@@H](OCc2ccc3ccccc3c2)[C@@H]1O [Compound 141] | – | – | – | − (% SST5 radio-ligand binding displaced at cone (μM) −<40%) | − (% SST5 radio-ligand binding displaced at cone (μM) −<40%) | – |
| COC[C@H]1O[C@H](OCc2ccc3ccccc3c2)[C@H](NC(=O)CCN)[C@@H](OCc2ccc3ccccc3n2)[C@@H]1O [Compound 116] | – | – | – | + (% SST5 radio-ligand binding displaced at cone (μM) 60>+>40%) | ++ (% SST5 radio-ligand binding displaced at conc (μM) >60%) | – |
| COC[C@H]1O[C@H](OCc2ccc3ccccc3c2)[C@H](NC(=O)CCCN2CCCC2)[C@@H](OCc2ccc3ccccc3c2)[C@@H]1O [Compound 143] | – | – | – | − (% SST5 radio-ligand binding displaced at cone (μM) −<40%) | − (% SST5 radio-ligand binding displaced at cone (μM) −<40%) | – |
| COC1C(O)C(COCc2cccc(O)c2)OC(OCc2ccc3ccccc3c2)C1NC(=O)CCCN (mixture of isomers) [Compound 125] | – | – | – | – | – | % SST5 radio-ligand binding displaced at conc 0.5 (3P library): − (% SST5 radio-ligand binding displaced at cone (μM) −<40%); % SST5 radio-ligand binding displaced at conc 10 (3P library): + (% SST5 radio-ligand binding displaced at cone (μM) 60>+>40%) |
| COC[C@H]1O[C@@H](OCc2ccc(Cl)cc2)[C@H](NC(=O)CCCN)[C@@H](OC)[C@@H]1O [Compound 27] | − (% SST5 radio-ligand binding displaced at cone (μM) −<40%) | − (% SST5 radio-ligand binding displaced at cone (μM) −<40%) | − (% SST5 radio-ligand binding displaced at cone (μM) −<40%) | – | – | – |
| COC1C(O)C(COCc2ccc(Cl)cc2)OC(OCc2ccc3ccccc3c2)C1NC(=O)CCCN (mixture of isomers) [Compound 124] | – | – | – | – | – | % SST5 radio-ligand binding displaced at conc 0.5 (3P library): − (% SST5 radio-ligand binding displaced at cone (μM) −<40%); % SST5 radio-ligand binding displaced at conc 10 (3P library): + (% SST5 radio-ligand binding displaced at cone (μM) 60>+>40%) |
| COC[C@H]1O[C@@H](SC)[C@H](NC(=O)CN)[C@@H](OCc2ccc(Cl)cc2)[C@@H]1O [Compound 9] | − (% SST5 radio-ligand binding displaced at cone (μM) −<40%) | − (% SST5 radio-ligand binding displaced at cone (μM) −<40%) | − (% SST5 radio-ligand binding displaced at cone (μM) −<40%) | – | – | – |
| COC[C@H]1O[C@H](OCc2ccc(Cl)cc2)[C@H](NC(=O)CN)[C@H](OC)[C@@H]1O [Compound 158] | – | – | – | – | – | % SST5 radio-ligand binding displaced at conc 50 (conc 50 μM, 3P library): − (% SST5 radio-ligand binding displaced at cone (μM) −<40%); % SST5 radio-ligand binding displaced at conc 250 (conc 250 μM, 3P library): − (% SST5 radio-ligand binding displaced at cone (μM) −<40%); % SST5 radio-ligand binding displaced at conc 500 (conc 500 μM, 3P library): − (% SST5 radio-ligand binding displaced at cone (μM) −<40%) |
| COCC1OC(OCc2ccc3ccccc3c2)C(NC(=O)C2CCCCC2N)C(OCc2ccc3ccccc3c2)C1O (stereo not shown) [Compound 105] | – | – | – | − (% SST5 radio-ligand binding displaced at cone (μM) −<40%) | − (% SST5 radio-ligand binding displaced at cone (μM) −<40%) | – |
| COC1C(O)C(COCc2ccc(Cl)cc2)OC(OCc2ccc(Cl)cc2)C1NC(=O)CN (mixture of isomers) [Compound 177] | – | – | – | − (% SST5 radio-ligand binding displaced at cone (μM) −<40%) | − (% SST5 radio-ligand binding displaced at cone (μM) −<40%) | – |
